Key:
human skeletal myotubes [1] = test: Triglyceride accumulation in oleate-loaded human skeletal myotubes; assay type: cell-based; conditions: Myotube, 100 μM oleate 24 hours, read-out: EC50, inhibition of TAG accumulation
Description: Human skeletal myotubes were differentiated for 8 days. On day 7, 100 μM of oleic acid complexed to fatty acid-free BSA was added to the cells with the indicated concentration of test compound for 24 hours. Following incubation with oleate and compound, cells were formaldehyde fixed and stained with AdipoRed™ (Lonza). Triglyceride accumulation was measured using signal intensity at excitation 540/emission 590 nm (Bio-Tek Instruments, Inc.). Dose response curves were generated in Prism 6 (GraphPad Software). EC50 values were calculated using non-linear regression analysis. For biochemical measurement of triglyceride, human skeletal myotubes were incubated with oleate-BSA and test compound as described above. After 24 hour incubation, cells were collected with a lysis buffer containing 0.1% IGEPAL CA-630 (Sigma-Aldrich) in PBS. The harvested cells were sonicated for 5 seconds and then centrifuged at 10,000×g for 10 minutes at 4° C. The supernatant was removed and stored on ice. TAG levels were quantified using Infinity™ Triglycerides Liquid Stable Reagent (Thermo Scientific), following the manufacturer's instructions for colorimetric assay.
Student's t-test, Mann Whitney test, one-way ANOVA with Bonferroni post hoc test, or two-way ANOVA with Tukey post hoc test was performed to determine statistical significance as indicated. […]

human TXNIP promoter = test: TXNIP promoter luciferase reporter assay in H9c2 myocytes; assay type: cell-based, rat; conditions: 24 hours
Description: Transient transfections were performed using Attractene (Qiagen) according to the manufacturer's protocols. A full length (1.5 kb) and two serial deletion (1.0 kb and 0.5 kb) reporters of the human TXNIP promoter were generously provided by Dr. Fumihiko Urano (Washington University School of Medicine). Mutation of the carbohydrate-responsive elements (ChoREs) of the reporters was generated by QuikChange II Site-Directed Mutagenesis kit (Agilent). H9c2 myoblast cells (ATCC) were cotransfected with 700 ng of the reporter and 25 ng of CMV promoter driven Renilla luciferase as a control for transfection efficiency. Eighteen hours after transfection, the cells were cultured in DMEM supplemented with 1% fetal bovine serum to induce differentiation for 4 days. SBI-477 was added during the last 24 hours at the indicated concentration. After compound incubation, luciferase activity was measured using the Dual-Glo luciferase assay system (Promega) according to the manufacturer's protocols.

human skeletal myotubes [2] = test: Cellular glucose uptake assay ([3H]-2-deoxyglucose); assay type: cell-based; conditions: 10 μM SBI-477, 24 hours
Description: After differentiation, primary human skeletal myotubes were incubated with the indicated concentration of SBI-477 for 24 hours and then treated with insulin (100 nM) for 30 minutes. Cells were washed in phosphate-buffered saline (PBS) three times at room temperature and then incubated with Krebs-Ringer HEPES buffer (140 mM NaCl, 5 mM KCl, 1 mM CaCl2, 2.5 mM MgSO4, 2.5 mM, NaH2PO4, 20 mM HEPES and 0.1% bovine serum albumin) containing [3H]-2-deoxyglucose (1.0 μCi/mL) for 15 min. Glucose uptake was terminated by washing five times with ice-cold PBS. The cells were then solubilized with 0.5N sodium hydroxide (NaOH). The amount of [3H]-2-deoxyglucose taken up was measured by liquid scintillation analyzer (PerkinElmer) and normalized to total protein.

AMPK = test: Western blot of AMPK activation; assay type: cell-based, human; conditions: 24 hours
Description: FIGS. 3D and G show SBI-477-mediated increase in glucose uptake in oleate-loaded skeletal myotubes (FIG. 3D) SBI-477 increases glucose uptake in oleate-loaded human skeletal myotubes. Basal and insulin-stimulated [3H]2-DG uptake was measured in human skeletal myotubes following treatment with SBI-477 for 24 hours in the presence of 100 μM oleate or BSA as a control. *p<0.05 vs. vehicle, †p<0.05 vs. vehicle/insulin by one-way ANOVA with Bonferroni post hoc test. FIG. 3G—Western blot analysis (left) of human myotubes treated with SBI-477 for 24 hours was performed to determine activation of S6K and AMPK using the indicated phospho-specific antibodies. Insulin treatment (100 nM) for 30 minutes was used as positive control. Quantitation (right) of the Western blot data is shown (n=4-5). *p<0.05 vs. Vehicle by one-way ANOVA with Bonferroni post hoc test. The data represent mean±SD.
Cells were lysed in the RIPA buffer containing 1% NP-40, 5 mM Na4P2O7, 1 mM EDTA, 20 mM NaF, 2 mM Na3VO4, 1× cOmplete™ protease inhibitor (Roche) and 1 mM phenylmethylsulfonyl fluoride. Whole cell lysates were subjected to SDS-PAGE and transferred to a nitrocellulose membrane. The blots were hybridized with specific antibodies and developed with enhanced chemiluminescence kit (Pierce). […] Protein quantification was performed using FluorChemQ (Alpha Innotech) and normalized to […]-actin or total protein where indicated.

H9c2 myotubes = test: Glycogen synthesis in H9c2 myotubes; assay type: cell-based, Rat
[3] = tested on: fatty acid transporter, CD36; test: CD36 gene expression; assay type: cell-based; conditions: data not shown
Description: Total RNA was isolated using RNeasy Mini Kit (Qiagen) according to the manufacturer's instructions. cDNA was synthesized using the Affinity Script cDNA Synthesis Kit (Stratagene) with 0.5 μg of total RNA. PCR reactions were performed in triplicate […] Roche LightCycler® 480 Instrument II) with specific primers for each gene.

[4] = tested on: primary murine skeletal myocytes; test: TAG accumulation in primary murine skeletal myocytes; assay type: cell-based; conditions: Mus musculus; primary murine skeletal myocytes; read-out: Activity Score (IC50), triacylglyceride (TAG) accumulation

SMILES: COc1ccc(-c2csc(NC(=O)c3ccc(OCC(=O)N4CCOCC4)c(OC)c3)n2)cc1 [Cpd. 7, 3-methoxy-N-(4-(4-methoxyphenyl)thiazol-2-yl)-4-(2-morpholino-2-oxoethoxy)benzamide]
- EC50 (human skeletal myotubes [1]): ~1 µM
- TXNIP promoter activity (luciferase) (human TXNIP promoter): decreased promoter activity in a dose dependent manner
- Increase of basal and insulin stimulated glucose uptake (human skeletal myotubes [2]): approximately 84%
- AMPK activation (AMPK): activation of AMPK
- Insulin-stimulated glycogen synthesis compared to vehicle (H9c2 myotubes): increased insulin-stimulated glycogen synthesis
- Gene expression of CD36 [3]: no effect
- IC50 [4]: < 1 µM
